Measurements reported in PMC5218480 (PLoS ONE, 2017).

System: MV-4-11 cells
Test: Gene expression microarray analysis (Affymetrix PrimeView) and GSEA
Assay type: cell-based, human
Set-up: RFU PODN (11730768_x_at) / Fold change /veh PODN (11730768_x_at) / RFU LINC00158 (11744669_a_at) / Fold change /veh LINC00158 (11744669_a_at) / RFU DUSP10 (11751237_a_at) / Fold change /veh DUSP10 (11751237_a_at) / RFU ID3 (11757404_x_at) / Fold change /veh ID3 (11757404_x_at) / RFU PLEKHG5 (11737974_s_at) / Fold change /veh PLEKHG5 (11737974_s_at) / RFU LRRC4B (11730491_at) / Fold change /veh LRRC4B (11730491_at) / RFU GIMAP4 (11747438_a_at) / Fold change /veh GIMAP4 (11747438_a_at) / RFU KRT8 (11758183_x_at) / Fold change /veh KRT8 (11758183_x_at) / RFU CNN1 (11734310_a_at) / Fold change /veh CNN1 (11734310_a_at) / RFU VPS37D (11726825_at) / Fold change /veh VPS37D (11726825_at) / RFU C10orf10 (11716522_x_at) / Fold change /veh C10orf10 (11716522_x_at) / RFU KIR2DL2 /// KIR2DL4 /// KIR2DL5A /// KIR2DL5B /// KIR2DS1 /// KIR2DS2 /// KIR2DS3 /// KIR2DS4 /// KIR3DL3 /// KIR3DL3 /// KIR3DS1 (11738374_at) / Fold change /veh KIR2DL2 /// KIR2DL4 /// KIR2DL5A /// KIR2DL5B /// KIR2DS1 /// KIR2DS2 /// KIR2DS3 /// KIR2DS4 /// KIR3DL3 /// KIR3DL3 /// KIR3DS1 (11738374_at) / RFU C1QL1 (11718748_at) / Fold change /veh C1QL1 (11718748_at) / RFU TMPRSS4 (11747572_a_at) / Fold change /veh TMPRSS4 (11747572_a_at) / RFU HAMP (11756126_x_at) / Fold change /veh HAMP (11756126_x_at) / RFU RNFT2 (11725882_a_at) / Fold change /veh RNFT2 (11725882_a_at) / RFU NR4A2 (11747474_a_at) / Fold change /veh NR4A2 (11747474_a_at) / RFU ABCC12 (11746883_a_at) / Fold change /veh ABCC12 (11746883_a_at) / RFU TMEM136 (11760407_x_at) / Fold change /veh TMEM136 (11760407_x_at) / RFU CLDN22 /// WWC2 (11732394_at) / Fold change /veh CLDN22 /// WWC2 (11732394_at) / RFU HLA-DPB1 (11760878_x_at) / Fold change /veh HLA-DPB1 (11760878_x_at) / RFU SPINT1 (11716480_a_at) / Fold change /veh SPINT1 (11716480_a_at) / RFU GAP43 (11754022_s_at) / Fold change /veh GAP43 (11754022_s_at) / RFU A4GNT (11735810_at) / Fold change /veh A4GNT (11735810_at) / RFU PRB3 (11715151_x_at) / Fold change /veh PRB3 (11715151_x_at) / RFU TUBB4B (11761932_at) / Fold change /veh TUBB4B (11761932_at) / RFU CAPN14 (11732068_a_at) / Fold change /veh CAPN14 (11732068_a_at) / RFU TMCC2 (11721928_a_at) / Fold change /veh TMCC2 (11721928_a_at) / RFU IRGQ (11745062_a_at) / Fold change /veh IRGQ (11745062_a_at) / RFU FAM174B (11720279_a_at) / Fold change /veh FAM174B (11720279_a_at) / RFU TMPRSS4 (11748680_a_at) / Fold change /veh TMPRSS4 (11748680_a_at) / RFU FAM212B (11763350_a_at) / Fold change /veh FAM212B (11763350_a_at) / RFU PLEKHG5 (11743358_a_at) / Fold change /veh PLEKHG5 (11743358_a_at) / RFU ZSCAN30 (11745921_a_at) / Fold change /veh ZSCAN30 (11745921_a_at) / RFU CMKLR1 (11741424_a_at) / Fold change /veh CMKLR1 (11741424_a_at) / RFU LOC101060620 /// MAPK8IP1 (11723275_at) / Fold change /veh LOC101060620 /// MAPK8IP1 (11723275_at) / RFU SPTSSB (11747773_x_at) / Fold change /veh SPTSSB (11747773_x_at) / RFU PRSS12 (11739890_at) / Fold change /veh PRSS12 (11739890_at) / RFU BIN1 (11741810_x_at) / Fold change /veh BIN1 (11741810_x_at) / RFU WNT11 (11732464_a_at) / Fold change /veh WNT11 (11732464_a_at) / RFU C10orf10 (11716521_a_at) / Fold change /veh C10orf10 (11716521_a_at) / RFU C5orf56 (11738089_at) / Fold change /veh C5orf56 (11738089_at) / RFU CYB561 (11721691_x_at) / Fold change /veh CYB561 (11721691_x_at) / RFU ANKRD19P (11752326_a_at) / Fold change /veh ANKRD19P (11752326_a_at) / RFU OR2T12 /// OR2T33 /// OR2T8 (11738714_s_at) / Fold change /veh OR2T12 /// OR2T33 /// OR2T8 (11738714_s_at) / RFU VCAN (11748164_a_at) / Fold change /veh VCAN (11748164_a_at) / RFU JSRP1 (11732532_at) / Fold change /veh JSRP1 (11732532_at) / RFU KRTAP10-11 (11738290_x_at) / Fold change /veh KRTAP10-11 (11738290_x_at) / RFU MYO3A (11730013_a_at) / Fold change /veh MYO3A (11730013_a_at) / RFU EBF3 (11725865_a_at) / Fold change /veh EBF3 (11725865_a_at) / RFU CAMK2N1 (11719241_x_at) / Fold change /veh CAMK2N1 (11719241_x_at) / RFU C5orf56 (11738088_a_at) / Fold change /veh C5orf56 (11738088_a_at) / RFU OLFML3 (11715873_a_at) / Fold change /veh OLFML3 (11715873_a_at) / RFU LOC100653217 /// NTM (11731650_a_at) / Fold change /veh LOC100653217 /// NTM (11731650_a_at) / RFU MAPK11 (11762145_a_at) / Fold change /veh MAPK11 (11762145_a_at) / RFU FIZ1 (11724087_x_at) / Fold change /veh FIZ1 (11724087_x_at) / RFU OASL (11726364_x_at) / Fold change /veh OASL (11726364_x_at) / RFU SOX15 (11748057_x_at) / Fold change /veh SOX15 (11748057_x_at) / RFU CD79A (11719716_a_at) / Fold change /veh CD79A (11719716_a_at) / RFU HIST1H1D (11736915_at) / Fold change /veh HIST1H1D (11736915_at) / RFU CASKIN2 (11723855_a_at) / Fold change /veh CASKIN2 (11723855_a_at) / RFU LOC730098 (11760151_x_at) / Fold change /veh LOC730098 (11760151_x_at) / RFU OR4N2 (11742367_at) / Fold change /veh OR4N2 (11742367_at) / RFU PRRT2 (11749266_a_at) / Fold change /veh PRRT2 (11749266_a_at) / RFU SNX32 (11753110_a_at) / Fold change /veh SNX32 (11753110_a_at) / RFU CDHR5 (11726645_a_at) / Fold change /veh CDHR5 (11726645_a_at) / RFU RCAN1 (11760418_a_at) / Fold change /veh RCAN1 (11760418_a_at) / RFU FAM167A (11723789_a_at) / Fold change /veh FAM167A (11723789_a_at) / RFU FAM26E (11764081_at) / Fold change /veh FAM26E (11764081_at) / RFU ISYNA1 (11749810_s_at) / Fold change /veh ISYNA1 (11749810_s_at) / RFU ACY1 (11761880_at) / Fold change /veh ACY1 (11761880_at) / RFU 11764098_at / Fold change /veh 11764098_at / RFU SAMD14 (11745864_x_at) / Fold change /veh SAMD14 (11745864_x_at) / RFU NPB (11741838_a_at) / Fold change /veh NPB (11741838_a_at) / RFU TMPRSS6 (11731388_a_at) / Fold change /veh TMPRSS6 (11731388_a_at) / RFU KRTAP10-2 (11738614_at) / Fold change /veh KRTAP10-2 (11738614_at) / RFU ARHGAP8 /// PRR5-ARHGAP8 (11727945_x_at) / Fold change /veh ARHGAP8 /// PRR5-ARHGAP8 (11727945_x_at) / RFU KRTAP5-7 /// NADSYN1 (11734609_at) / Fold change /veh KRTAP5-7 /// NADSYN1 (11734609_at) / RFU RASL12 (11751679_a_at) / Fold change /veh RASL12 (11751679_a_at) / RFU CDKN2B (11736163_a_at) / Fold change /veh CDKN2B (11736163_a_at) / RFU PRF1 (11729649_at) / Fold change /veh PRF1 (11729649_at) / RFU, ZNF638 /// ZNF638-IT1 / Fold change vs veh, ZNF638 /// ZNF638-IT1 / RFU, PANK3 / Fold change vs veh, PANK3 / RFU, SH3YL1 / Fold change vs veh, SH3YL1 / RFU, ZEB2 / Fold change vs veh, ZEB2 / RFU, NRIP1 / Fold change vs veh, NRIP1 / RFU, PTTG1IP / Fold change vs veh, PTTG1IP / RFU, CAPN2 / Fold change vs veh, CAPN2 / RFU, MED14 / Fold change vs veh, MED14 / RFU, SNORA58 / Fold change vs veh, SNORA58 / RFU, C1orf63 / Fold change vs veh, C1orf63 / RFU, LRRFIP1 / Fold change vs veh, LRRFIP1 / RFU, NDUFAF7 / Fold change vs veh, NDUFAF7 / RFU, SLC12A2 / Fold change vs veh, SLC12A2 / RFU, IBTK / Fold change vs veh, IBTK / RFU, ESF1 / Fold change vs veh, ESF1 / Fold change vs veh, TMEM50B / RFU, TAOK1 / Fold change vs veh, TAOK1 / RFU, ACBD3 / Fold change vs veh, ACBD3 / RFU, TMA16 / Fold change vs veh, TMA16 / RFU, RWDD3 / Fold change vs veh, RWDD3 / RFU, BCAT1 / Fold change vs veh, BCAT1 / RFU, EDEM3 / Fold change vs veh, EDEM3 / RFU, TMEM33 / Fold change vs veh, TMEM33 / RFU, WDR75 / Fold change vs veh, WDR75 / RFU, AHCTF1 / Fold change vs veh, AHCTF1 / RFU, TFRC / Fold change vs veh, TFRC / RFU, ZDHHC17 / Fold change vs veh, ZDHHC17 / RFU, NOM1 / Fold change vs veh, NOM1 / RFU, ARL8B / Fold change vs veh, ARL8B / RFU, ZBTB11 / Fold change vs veh, ZBTB11 / RFU, TAMM41 / Fold change vs veh, TAMM41 / RFU, KIAA1704 /// LOC100996395 / Fold change vs veh, KIAA1704 /// LOC100996395 / RFU, ING1 / Fold change vs veh, ING1 / RFU, TRMT61B / Fold change vs veh, TRMT61B / RFU, FUBP3 / Fold change vs veh, FUBP3 / RFU, TP53 / Fold change vs veh, TP53 / RFU, TNKS2 / Fold change vs veh, TNKS2 / RFU, ZFP14 / Fold change vs veh, ZFP14 / RFU, ACTR2 / Fold change vs veh, ACTR2 / RFU, PPP3R1 / Fold change vs veh, PPP3R1 / RFU, PIK3R1 / Fold change vs veh, PIK3R1 / RFU, HNRNPA1 / Fold change vs veh, HNRNPA1 / RFU, RNF170 / Fold change vs veh, RNF170 / RFU, ZNF28 / Fold change vs veh, ZNF28 / RFU, RNGTT / Fold change vs veh, RNGTT / RFU, OGT / Fold change vs veh, OGT / RFU, BRD1 / Fold change vs veh, BRD1 / RFU, MARS / Fold change vs veh, MARS / RFU, ZNF655 / Fold change vs veh, ZNF655 / RFU, FAHD1 / Fold change vs veh, FAHD1 / RFU, BDP1 / Fold change vs veh, BDP1 / RFU, LRRCC1 / Fold change vs veh, LRRCC1 / RFU, ARID1A / Fold change vs veh, ARID1A / RFU, ZNF146 / Fold change vs veh, ZNF146 / RFU, ZNF330 / Fold change vs veh, ZNF330 / RFU, GPN3 / Fold change vs veh, GPN3 / RFU, C9orf123 / Fold change vs veh, C9orf123 / RFU, N4BP2L2 / Fold change vs veh, N4BP2L2 / RFU, ARFIP1 / Fold change vs veh, ARFIP1 / RFU, FAM179B / Fold change vs veh, FAM179B / RFU, BCL10 / Fold change vs veh, BCL10 / RFU, UHRF1BP1L / Fold change vs veh, UHRF1BP1L / RFU, BET1 / Fold change vs veh, BET1 / RFU, CNOT2 / Fold change vs veh, CNOT2 / RFU, ZNF268 / Fold change vs veh, ZNF268 / Fold change vs veh, ZNF507 / RFU, DGCR2 / Fold change vs veh, DGCR2 / RFU, WDSUB1 / Fold change vs veh, WDSUB1 / Fold change vs veh, HSP90B1 /// MIR3652 / RFU, ADSS / Fold change vs veh, ADSS / RFU, GK / Fold change vs veh, GK / RFU, ZNF148 / Fold change vs veh, ZNF148 / RFU, TAF9 / Fold change vs veh, TAF9 / RFU, SLC1A5 / Fold change vs veh, SLC1A5 / RFU, SLMO2 / Fold change vs veh, SLMO2 / RFU, ABCC4 / Fold change vs veh, ABCC4 / RFU, LOC101060439 /// RAP1B / Fold change vs veh, LOC101060439 /// RAP1B / RFU, RFX7 / Fold change vs veh, RFX7 / RFU, GTPBP10 / Fold change vs veh, GTPBP10 / RFU, CNEP1R1 / Fold change vs veh, CNEP1R1 / RFU, BIVM-ERCC5 /// ERCC5 / Fold change vs veh, BIVM-ERCC5 /// ERCC5 / RFU, ILF3 / Fold change vs veh, ILF3 / RFU 11762660_at / Fold change /veh 11762660_at / RFU VCAN (11757783_s_at) / Fold change /veh VCAN (11757783_s_at) / RFU DDX43 (11728927_at) / Fold change /veh DDX43 (11728927_at) / RFU KRT8 (11758188_x_at) / Fold change /veh KRT8 (11758188_x_at) / RFU NKD1 (11759106_at) / Fold change /veh NKD1 (11759106_at) / RFU SRD5A1 (11742802_a_at) / Fold change /veh SRD5A1 (11742802_a_at) / RFU TPSAB1 /// TPSB2 (11721975_s_at) / Fold change /veh TPSAB1 /// TPSB2 (11721975_s_at) / RFU GSTM3 (11746129_a_at) / Fold change /veh GSTM3 (11746129_a_at) / RFU IL23R (11737362_x_at) / Fold change /veh IL23R (11737362_x_at) / RFU TMEM51 (11727254_a_at) / Fold change /veh TMEM51 (11727254_a_at) / RFU PIWIL2 (11732686_x_at) / Fold change /veh PIWIL2 (11732686_x_at) / RFU ORM1 (11744905_x_at) / Fold change /veh ORM1 (11744905_x_at) / RFU CCDC152 (11743942_at) / Fold change /veh CCDC152 (11743942_at) / RFU ECM1 (11717891_a_at) / Fold change /veh ECM1 (11717891_a_at) / RFU IL23R (11748794_a_at) / Fold change /veh IL23R (11748794_a_at) / RFU TNFAIP8L3 (11732012_x_at) / Fold change /veh TNFAIP8L3 (11732012_x_at) / RFU MBOAT4 (11741988_at) / Fold change /veh MBOAT4 (11741988_at) / RFU 11764193_at / Fold change /veh 11764193_at / RFU TMEM53 (11763286_at) / Fold change /veh TMEM53 (11763286_at) / RFU MAGEB2 (11727129_at) / Fold change /veh MAGEB2 (11727129_at) / RFU TMEM200A (11744735_a_at) / Fold change /veh TMEM200A (11744735_a_at) / RFU CCDC152 (11751479_a_at) / Fold change /veh CCDC152 (11751479_a_at) / RFU FAM211A (11726209_a_at) / Fold change /veh FAM211A (11726209_a_at) / RFU RGS16 (11746705_a_at) / Fold change /veh RGS16 (11746705_a_at) / RFU VCAN (11755009_s_at) / Fold change /veh VCAN (11755009_s_at) / RFU RHOB (11743442_s_at) / Fold change /veh RHOB (11743442_s_at) / RFU RGS16 (11720943_a_at) / Fold change /veh RGS16 (11720943_a_at) / RFU RGS16 (11720944_at) / Fold change /veh RGS16 (11720944_at) / RFU, VPS4B / Fold change vs veh, VPS4B / RFU, CREB1 / Fold change vs veh, CREB1 / RFU, DNAJC13 / Fold change vs veh, DNAJC13 / RFU, GNAQ / Fold change vs veh, GNAQ / RFU, CDK5R1 / Fold change vs veh, CDK5R1 / RFU, ZRANB3 / Fold change vs veh, ZRANB3 / RFU, CUL4A / Fold change vs veh, CUL4A / RFU, CCNY / Fold change vs veh, CCNY / RFU, UFL1 / Fold change vs veh, UFL1 / RFU, COG3 / Fold change vs veh, COG3 / RFU, DIAPH2 / Fold change vs veh, DIAPH2 / RFU, SKA2 / Fold change vs veh, SKA2 / RFU, AFF3 / Fold change vs veh, AFF3 / RFU, LMF1 / Fold change vs veh, LMF1 / RFU, IPO11 / Fold change vs veh, IPO11 / RFU, DFFB / Fold change vs veh, DFFB / RFU, FOXP1 / Fold change vs veh, FOXP1 / RFU, CARD8 / Fold change vs veh, CARD8 / RFU, STRN3 / Fold change vs veh, STRN3 / RFU, ADK / Fold change vs veh, ADK / RFU, RASSF2 / Fold change vs veh, RASSF2 / RFU, WIPF1 / Fold change vs veh, WIPF1 / RFU, LARP1B / Fold change vs veh, LARP1B / RFU, RASA1 / Fold change vs veh, RASA1 / RFU, RB1 / Fold change vs veh, RB1 / RFU, PPFIA1 / Fold change vs veh, PPFIA1 / RFU, MAT2A / Fold change vs veh, MAT2A / RFU, CCT5 / Fold change vs veh, CCT5 / RFU, WDR92 / Fold change vs veh, WDR92 / RFU, CUX1 / Fold change vs veh, CUX1 / RFU, TTC7A / Fold change vs veh, TTC7A / RFU, TMEM135 / Fold change vs veh, TMEM135 / RFU, DEPTOR / Fold change vs veh, DEPTOR / RFU, CPM / Fold change vs veh, CPM / RFU, DNAJB6 / Fold change vs veh, DNAJB6 / RFU, CACNA2D3 / Fold change vs veh, CACNA2D3 / RFU, DTX4 / Fold change vs veh, DTX4 / RFU, TFCP2 / Fold change vs veh, TFCP2 / RFU, GMCL1 /// GMCL1P1 / Fold change vs veh, GMCL1 /// GMCL1P1 / RFU, AEBP2 / Fold change vs veh, AEBP2 / RFU, SNHG1 /// SNORD22 /// SNORD25 /// SNORD26 /// SNORD27 /// SNORD28 /// SNORD29 /// SNORD31 / Fold change vs veh, SNHG1 /// SNORD22 /// SNORD25 /// SNORD26 /// SNORD27 /// SNORD28 /// SNORD29 /// SNORD31 / Fold change (Aza/veh), C12orf56 (ProbeSet 11735607_a_at) / Fold change (ACY-1035/veh), C12orf56 (ProbeSet 11735607_a_at) / Fold change (Aza/veh), FGFR1OP (ProbeSet 11751329_s_at) / Fold change (ACY-1035/veh), FGFR1OP (ProbeSet 11751329_s_at) / Fold change (Aza/veh), VPS36 (ProbeSet 11739960_a_at) / Fold change (ACY-1035/veh), VPS36 (ProbeSet 11739960_a_at) / RFU SYPL1 (11715823_x_at) / Fold change /veh SYPL1 (11715823_x_at) / RFU IGFBP7 (11715501_s_at) / Fold change /veh IGFBP7 (11715501_s_at) / RFU REEP3 (11722064_at) / Fold change /veh REEP3 (11722064_at) / RFU IGLL1 (11728026_x_at) / Fold change /veh IGLL1 (11728026_x_at): dose or concentration left out as unconfirmed
Details: ProbeSet 11729384_s_at; LIST D

Nc1ccc(-c2cccs2)cc1NC(=O)c1ccc2c(c1)cc(C1CC1)n2CCN1CCOCC1 [ACY-1035]
RFU, CCNY: 178.51 RFU
